Laboratory results: patent US12391737B2, “Soluble NPY2 receptor agonists” (Boehringer Ingelheim International GmbH, priority 2020, dated 2025)

How the values were obtained:
Solubility determination = details: for Sol6: pH 6; for Sol7: pH 7
Method in brief: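 Solubility is derived from the ratio of reversed-phase peak areas, filtered sample over a control dissolved at 1 mg/ml in 50% acetonitrile. Peptides are agitated for 2 hours at room temperature in 0.1 M sodium diphosphate at pH 6.4 or 7.0, aiming at 10 mg/ml.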

[1] = target: T1, human NPY5 receptor (hY5R) (Homo sapiens, UniProt Q15761); assay: HTRF cAMP Gi assay, hY5R
T1 sequence (Q15761 1-445): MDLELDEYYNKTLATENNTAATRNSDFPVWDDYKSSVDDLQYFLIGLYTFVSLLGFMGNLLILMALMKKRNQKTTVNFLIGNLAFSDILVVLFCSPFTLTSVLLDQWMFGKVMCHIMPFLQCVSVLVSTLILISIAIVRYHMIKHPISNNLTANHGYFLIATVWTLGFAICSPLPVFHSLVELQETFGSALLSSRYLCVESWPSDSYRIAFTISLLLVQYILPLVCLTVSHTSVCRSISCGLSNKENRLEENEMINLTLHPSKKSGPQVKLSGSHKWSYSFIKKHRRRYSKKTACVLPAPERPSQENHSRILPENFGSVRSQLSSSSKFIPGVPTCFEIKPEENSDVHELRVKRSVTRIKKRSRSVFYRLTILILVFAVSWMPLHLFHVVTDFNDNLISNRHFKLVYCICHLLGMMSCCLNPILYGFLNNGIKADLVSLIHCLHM

[2] = target: T2, Human Neuropeptide Y2 Receptor (Homo sapiens, UniProt P49146); assay: Radioligand binding competition assay (RLB); details: Table 3, 125I-PYY(1-36) competition; read-out: Ki
T2 construct: purchased CHEMICON HTS066M
T2 sequence (P49146 1-381): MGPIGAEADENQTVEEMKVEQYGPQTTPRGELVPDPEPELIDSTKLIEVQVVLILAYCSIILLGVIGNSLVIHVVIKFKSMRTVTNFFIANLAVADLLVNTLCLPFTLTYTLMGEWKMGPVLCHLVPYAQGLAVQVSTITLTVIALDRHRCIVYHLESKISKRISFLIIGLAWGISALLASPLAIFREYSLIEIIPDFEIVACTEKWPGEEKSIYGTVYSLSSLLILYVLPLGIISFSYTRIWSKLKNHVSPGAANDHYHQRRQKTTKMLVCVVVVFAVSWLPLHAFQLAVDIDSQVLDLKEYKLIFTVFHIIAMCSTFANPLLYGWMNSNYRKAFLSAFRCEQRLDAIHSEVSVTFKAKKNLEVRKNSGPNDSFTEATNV
Method in brief: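 Filtration binding assay on human Y2 receptor membrane preparation, 0.5 μg protein per well, in 50 mM HEPES pH 7.4 containing 5 mM MgCl2, 1 mM CaCl2 and 0.2% ovalbumin. Plates shake 2 h at room temperature before harvest and scintillation counting.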

CC[C@H](C)[C@H](NC(=O)[C@H](CCC(=O)O)NC(=O)[C@H](CCC(=O)O)NC(=O)[C@@H]1CCCN1C(=O)[C@H](CO)NC(=O)[C@H](C)NC(=O)[C@H](CC(=O)O)NC(=O)[C@H](CCC(=O)O)NC(=O)[C@H](CCC(=O)O)NC(=O)[C@H](C)NC(=O)[C@H](CCCCNC(=O)CCCCCNC(=O)CC[C@H](NC(=O)CCCCCCCCCCCCCCCCC(=O)O)C(=O)O)NC(=O)[C@H](CCC(=O)O)NC(=O)[C@@H]1CCCN1C(=O)[C@H](C)NC(=O)CC(C)C)C(=O)N[C@@H](CCC(N)=O)C(=O)N[C@@H](CCCNC(=N)N)C(=O)N[C@@H](Cc1ccc(O)cc1)C(=O)N[C@@H](Cc1ccc(O)cc1)C(=O)N[C@H](C(=O)N[C@@H](CO)C(=O)N[C@@H](CC(C)C)C(=O)N[C@@H](CCCNC(=N)N)C(=O)N[C@@H](Cc1c[nH]cn1)C(=O)N[C@@H](Cc1ccc(O)cc1)C(=O)N[C@@H](Cc1ccc(O)cc1)C(=O)N[C@@H](CC(N)=O)C(=O)N[C@@H](Cc1c[nH]c2ccccc12)C(=O)N[C@@H](CC(C)C)C(=O)N[C@H](C(=O)N[C@@H](CCCNC(=N)N)C(=O)N[C@@H](CCC(N)=O)C(=O)N[C@@H](CCCNC(=N)N)C(=O)N[C@@H](Cc1ccc(O)cc1)C(N)=O)[C@@H](C)O)C(C)C [Compound 183, N{alpha-4}-(3-methylbutanoyl)-N{epsilon-7}-(6-[(4S)-4-carboxy-4-(17-carboxyheptadecanamido)butanamido]hexanoyl)-[4A,7K,8A,9E,17I,18Q,22V,28Y,30W,31L]-hPYY(4-36)]
Sol6 (Solubility determination): 8.4 mg/mL
Sol7 (Solubility determination): 8.7 mg/mL
EC50 [1]: > 5000 nM
Ki [2]: 18.8 nM

CC(C)CC(=O)N[C@@H](C)C(=O)N1CCC[C@H]1C(=O)N[C@@H](CCC(=O)O)C(=O)N[C@@H](CCCCNC(=O)CCCCCNC(=O)CC[C@H](NC(=O)CCCCCCCCCCCCCCCCC(=O)O)C(=O)O)C(=O)N1CCC[C@H]1C(=O)N[C@@H](CCC(=O)O)C(=O)N[C@@H](C)C(=O)N[C@@H](C)C(=O)N[C@@H](C)C(=O)N[C@@H](CCC(=O)O)C(=O)N1CCC[C@H]1C(=O)N[C@@H](CCC(=O)O)C(=O)N[C@@H](CCC(=O)O)C(=O)N[C@@H](CC(C)C)C(=O)N[C@@H](CCC(N)=O)C(=O)N[C@@H](CCCNC(=N)N)C(=O)N[C@@H](Cc1ccc(O)cc1)C(=O)N[C@@H](Cc1ccc(O)cc1)C(=O)N[C@H](C(=O)N[C@@H](C)C(=O)N[C@@H](CC(C)C)C(=O)N[C@@H](CCCNC(=N)N)C(=O)N[C@@H](Cc1c[nH]cn1)C(=O)N[C@@H](Cc1ccc(O)cc1)C(=O)N[C@@H](Cc1ccc(O)cc1)C(=O)N[C@@H](CC(N)=O)C(=O)N[C@@H](Cc1c[nH]c2ccccc12)C(=O)N[C@@H](CC(C)C)C(=O)N[C@H](C(=O)N[C@@H](CCCNC(=N)N)C(=O)N[C@@H](CCC(N)=O)C(=O)N[C@@H](CCCNC(=N)N)C(=O)N[C@@H](Cc1ccc(O)cc1)C(N)=O)[C@@H](C)O)C(C)C [Compound 127, N{alpha-4}-(3-methylbutanoyl)-N{epsilon-7}-(6-[(4S)-4-carboxy-4-(17-carboxyheptadecanamido)butanamido]hexanoyl)-[4A,7K,9E,10A,11A,13E,18Q,22V,23A,28Y,30W,31L]-hPYY(4-36)]
Sol6 (Solubility determination): 6.5 mg/mL
Sol7 (Solubility determination): >10.0 mg/mL
Ki [2]: 3.36 nM

CC[C@H](C)[C@H](NC(=O)[C@H](CCC(=O)O)NC(=O)[C@H](CCC(=O)O)NC(=O)[C@@H]1CCCN1C(=O)[C@H](CCC(=O)O)NC(=O)[C@H](C)NC(=O)[C@H](CC(=O)O)NC(=O)[C@H](C)NC(=O)[C@H](CCC(=O)O)NC(=O)[C@@H]1CCCN1C(=O)[C@H](CCCCNC(=O)CCCCCNC(=O)CC[C@H](NC(=O)CCCCCCCCCCCCCCCCC(=O)O)C(=O)O)NC(=O)[C@H](CCC(=O)O)NC(=O)[C@@H]1CCCN1C(=O)[C@H](C)NC(=O)CC(C)C)C(=O)N[C@@H](CCC(N)=O)C(=O)N[C@@H](CCCNC(=N)N)C(=O)N[C@@H](Cc1ccc(O)cc1)C(=O)N[C@@H](Cc1ccc(O)cc1)C(=O)N[C@H](C(=O)N[C@@H](C)C(=O)N[C@@H](CC(C)C)C(=O)N[C@@H](CCCNC(=N)N)C(=O)N[C@@H](Cc1c[nH]cn1)C(=O)N[C@@H](Cc1ccc(O)cc1)C(=O)N[C@@H](Cc1ccc(O)cc1)C(=O)N[C@@H](CC(N)=O)C(=O)N[C@@H](Cc1c[nH]c2ccccc12)C(=O)N[C@@H](CC(C)C)C(=O)N[C@H](C(=O)N[C@@H](CCCNC(=N)N)C(=O)N[C@@H](CCC(N)=O)C(=O)N[C@@H](CCCNC(=N)N)C(=O)N[C@@H](Cc1ccc(O)cc1)C(N)=O)[C@@H](C)O)C(C)C [Compound 131, N{alpha-4}-(3-methylbutanoyl)-N{epsilon-7}-(6-[(4S)-4-carboxy-4-(17-carboxyheptadecanamido)butanamido]hexanoyl)-[4A,7K,9E,10A,13E,17I,18Q,22V,23A,28Y,30W,31L]-hPYY(4-36)]
Sol6 (Solubility determination): 10.0 mg/mL
Sol7 (Solubility determination): >10.0 mg/mL
Ki [2]: 1.54 nM

CC[C@H](C)[C@H](NC(=O)[C@H](CCC(=O)O)NC(=O)[C@H](CCC(=O)O)NC(=O)[C@@H]1CCCN1C(=O)[C@H](CCC(N)=O)NC(=O)[C@H](C)NC(=O)[C@H](CC(=O)O)NC(=O)[C@H](CCC(=O)O)NC(=O)[C@H](CCC(=O)O)NC(=O)[C@@H]1CCCN1C(=O)[C@H](CCCCNC(=O)CCCCCNC(=O)CC[C@H](NC(=O)CCCCCCCCCCCCCCCCC(=O)O)C(=O)O)NC(=O)[C@H](CCC(=O)O)NC(=O)[C@@H]1CCCN1C(=O)[C@H](C)NC(=O)CC(C)C)C(=O)N[C@@H](CCC(N)=O)C(=O)N[C@@H](CCCNC(=N)N)C(=O)N[C@@H](Cc1ccc(O)cc1)C(=O)N[C@@H](Cc1ccc(O)cc1)C(=O)N[C@H](C(=O)N[C@@H](CO)C(=O)N[C@@H](CC(C)C)C(=O)N[C@@H](CCCNC(=N)N)C(=O)N[C@@H](Cc1c[nH]cn1)C(=O)N[C@@H](Cc1ccc(O)cc1)C(=O)N[C@@H](Cc1ccc(O)cc1)C(=O)N[C@@H](CC(N)=O)C(=O)N[C@@H](Cc1c[nH]c2ccccc12)C(=O)N[C@@H](CC(C)C)C(=O)N[C@H](C(=O)N[C@@H](CCCNC(=N)N)C(=O)N[C@@H](CCC(N)=O)C(=O)N[C@@H](CCCNC(=N)N)C(=O)N[C@@H](Cc1ccc(O)cc1)C(N)=O)[C@@H](C)O)C(C)C [Compound 81, N{alpha-4}-(3-methylbutanoyl)-N{epsilon-7}-(6-[(4S)-4-carboxy-4-(17-carboxyheptadecanamido)butanamido]hexanoyl)-[4A,7K,9E,13Q,17I,18Q,22V,28Y,30W,31L]-hPYY(4-36)]
Sol6 (Solubility determination): 8.9 mg/mL
Sol7 (Solubility determination): 8.9 mg/mL
Ki [2]: 2.65 nM
